The record followed here is article PMC10313368 (The Journal of Clinical Investigation, 2023).

In general, IC50 refers to the concentration at which inhibition is half-maximal.

Where “and” joins values, the source holds several entries; their conditions need not be identical. Equal values may be shown once.

Test [1] addresses T1, HIF-1α (Mus musculus, UniProt Q61221).
T1 construct: from tissue; host or cells: retina of C57BL/6 OIR pups
Kind of test: Western blot of HIF-1α protein accumulation in retina of OIR mice (P13). Format: in vivo. On the procedure:
Immunoblot assays. Cells, neurosensory retina, and D120 retinal organoid lysates were subjected to 4–15% gradient SDS/PAGE (Invitrogen). Immunoblot (Western blot or WB) assays were performed as previously described (1).
Reverse transcription and quantitative real-time PCR. Total RNA was isolated from cultured cells or retinas with PureLinkTM RNA Mini Kit (Invitrogen #12183025), and cDNA was prepared with MuLV Reverse Transcriptase (Applied Biosystems). Quantitative real-time PCR was performed with Power SYBR Green PCR Master Mix (Applied Biosystems) and MyiQ Real-Time PCR Detection System (Bio-Rad). Normalization was done using cyclophilin A for mouse tissue and human cell lines. Primers are listed in Supplemental Table 2.
Angiogenesis array. […]
cDNA was prepared with QuantiTect® Reverse Transcription Kit (Qiagen, Cat# 205311). […]
4444554). […] The data were analyzed by using HPRT1 as endogenous […]
HUVEC cells, Euclidean distance was used to quantify the difference in qPCR screening. The Euclidean distance was calculated using “dist” function from R’s default stat library that measures the distance between 2 vectors (i.e., total qPCR expression values in control and treatment). […]
STZ-induced diabetes mouse model. […] Blood glucose was measured on experimental day 28 after 16 hours fasting and mice with blood glucose level > 250 mg/dL were considered […]
A general note: A western blot detects proteins with antibodies after separation by electrophoresis.

Test [2] has as its target HIF-1α (Homo sapiens, UniProt Q16665). Briefly: Immunoblot of HIF-1α accumulation in MIO-M1 cells cultured in hypoxia. The format is cell-based. Set-up: endogenous in cells; host or cells: MIO-M1. How it is done:
MIO-M1, HUVECs, and ARPE19 cells were cultured in DMEM with 10% (vol/vol) FBS (Quality Biological) and 1% penicillin/streptomycin (Cellgro). A hypoxic chamber (Coy Laboratory Product Inc.; Two Glove Model) with 5% CO2, 94% N2, and 1% O2 gas concentration at 37°C was used to culture hypoxic cells. The control cells were cultured in an incubator maintained at 37°C, with 21% O2 and 5% CO2. […] Aflibercept was obtained from the Johns Hopkins University Pharmacy.
Immunoblot assays. Cells, neurosensory retina, and D120 retinal organoid lysates were subjected
to 4–15% gradient SDS/PAGE (Invitrogen). Immunoblot (Western blot or WB) assays were
performed as previously described (1). […]

In test [3] the test system is HUVECs. Kind of test: qPCR of VEGF, ANGPTL4, ANGPT2, PTPRB, SERPINE1 mRNA in hypoxic HUVECs. The format is cell-based, human. Particulars: for Angptl4 mRNA / Vegfa mRNA: HUVEC 16HRS, Figure 8D; for Angptl4 mRNA / Vegfa mRNA / Angpt2 mRNA / Ptprb mRNA / Serpine1 mRNA: replicates; for Angpt2 mRNA / Ptprb mRNA / Serpine1 mRNA: HUVEC, Figure 8E. On the procedure:
MIO-M1, HUVECs, and ARPE19 cells were cultured in DMEM with 10% (vol/vol) FBS (Quality Biological) and 1% penicillin/streptomycin (Cellgro). A hypoxic chamber (Coy Laboratory Product Inc.; Two Glove Model) with 5% CO2, 94% N2, and 1% O2 gas concentration at 37°C was used to culture hypoxic cells. The control cells were cultured in an incubator maintained at 37°C, with 21% O2 and 5% CO2. […] Aflibercept was obtained from the Johns Hopkins University Pharmacy. […]
Reverse transcription and quantitative real-time PCR. Total RNA was isolated from cultured cells or retinas with PureLinkTM RNA Mini Kit (Invitrogen #12183025), and cDNA was prepared with MuLV Reverse Transcriptase (Applied Biosystems). Quantitative real-time PCR was performed with Power SYBR Green PCR Master Mix (Applied Biosystems) and MyiQ Real-Time PCR Detection System (Bio-Rad). Normalization was done using cyclophilin A for mouse tissue and human cell lines. Primers are listed in Supplemental Table 2. […]

[4] abbreviates: HUVECs, hypoxia 16 hours, 32-134D 10 μM.

HIF-1α (Homo sapiens, UniProt Q16665), sequence (Q16665 whole entry): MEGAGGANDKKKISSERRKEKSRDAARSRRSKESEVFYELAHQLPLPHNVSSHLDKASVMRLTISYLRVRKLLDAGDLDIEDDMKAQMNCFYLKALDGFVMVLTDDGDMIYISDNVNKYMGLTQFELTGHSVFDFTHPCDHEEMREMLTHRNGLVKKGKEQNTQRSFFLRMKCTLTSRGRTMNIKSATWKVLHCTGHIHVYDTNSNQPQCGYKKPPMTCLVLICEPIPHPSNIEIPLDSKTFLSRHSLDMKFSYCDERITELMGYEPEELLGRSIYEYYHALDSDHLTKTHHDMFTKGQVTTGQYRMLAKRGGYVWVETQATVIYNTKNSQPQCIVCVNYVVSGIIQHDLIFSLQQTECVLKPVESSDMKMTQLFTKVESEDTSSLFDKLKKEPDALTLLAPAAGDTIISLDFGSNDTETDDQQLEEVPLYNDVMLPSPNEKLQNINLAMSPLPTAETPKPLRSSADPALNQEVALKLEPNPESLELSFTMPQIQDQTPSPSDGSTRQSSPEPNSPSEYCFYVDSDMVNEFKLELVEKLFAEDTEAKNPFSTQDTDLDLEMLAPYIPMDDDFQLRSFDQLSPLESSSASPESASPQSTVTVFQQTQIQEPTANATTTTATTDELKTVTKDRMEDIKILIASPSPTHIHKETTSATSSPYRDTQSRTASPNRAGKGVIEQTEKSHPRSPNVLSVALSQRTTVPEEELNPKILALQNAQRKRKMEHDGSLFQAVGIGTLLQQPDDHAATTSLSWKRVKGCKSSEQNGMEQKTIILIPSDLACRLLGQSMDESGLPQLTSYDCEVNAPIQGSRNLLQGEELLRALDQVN
T1 sequence (Q61221 whole entry): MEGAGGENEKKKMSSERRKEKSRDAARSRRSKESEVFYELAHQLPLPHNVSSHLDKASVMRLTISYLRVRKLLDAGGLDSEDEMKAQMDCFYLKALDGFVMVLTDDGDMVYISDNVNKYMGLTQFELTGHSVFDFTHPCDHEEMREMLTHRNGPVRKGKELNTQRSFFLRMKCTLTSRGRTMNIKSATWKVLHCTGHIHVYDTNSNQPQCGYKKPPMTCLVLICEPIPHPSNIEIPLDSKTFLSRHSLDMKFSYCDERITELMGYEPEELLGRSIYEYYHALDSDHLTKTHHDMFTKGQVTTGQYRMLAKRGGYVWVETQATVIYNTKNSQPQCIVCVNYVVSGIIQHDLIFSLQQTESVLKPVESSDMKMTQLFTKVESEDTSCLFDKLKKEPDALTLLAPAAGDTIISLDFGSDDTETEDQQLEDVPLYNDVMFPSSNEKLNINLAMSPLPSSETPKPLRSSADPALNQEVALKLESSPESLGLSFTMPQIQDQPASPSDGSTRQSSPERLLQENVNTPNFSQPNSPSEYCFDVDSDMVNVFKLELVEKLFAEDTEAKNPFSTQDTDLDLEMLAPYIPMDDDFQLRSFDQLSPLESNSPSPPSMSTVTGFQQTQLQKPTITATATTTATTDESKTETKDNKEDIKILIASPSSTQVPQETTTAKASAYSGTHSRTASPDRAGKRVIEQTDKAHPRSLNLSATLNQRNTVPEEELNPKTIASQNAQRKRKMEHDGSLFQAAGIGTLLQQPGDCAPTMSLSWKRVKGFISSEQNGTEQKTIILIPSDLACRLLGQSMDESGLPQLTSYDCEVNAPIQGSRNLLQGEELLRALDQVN

Turning to `Brc1ccc2c(-c3csc(-c4c[nH]c5c(Br)cccc45)n3)c[nH]c2c1` [32-134D, 4-(6-bromo-1H-indol-3-yl)-2-(7-bromo-1H-indol-3-yl)thiazole], in test [1] (single i.p. injection 20 mg/kg, P13), the “HIF-1α protein accumulation in OIR mice” value is listed as “reduction”. Moreover, in test [1] (single intraocular injection 14 ng at P12, P13), the “accumulation of HIF-1α in OIR mice” value is given as “effectively reduced”. For the same compound, in test [2] (MIO-M1, 1 μM 32-134D, 1% O2 4 hours), the “HIF-1α protein accumulation in response to hypoxia” value is listed as “decreased”. In test [2] (MIO-M1, 10 μM, hypoxia 1 to 24 hours), the “persistence of effect on HIF-1α accumulation after treatment” value is “up to 16 hours”. Besides, in test [2] (MIO-M1 cells cultured in hypoxia, read-out: IC50, HIF-1α protein accumulation (quantitation of immunoblots)), the IC50 came out at 3.5 µM. Besides, in test [3] (1% O2+32-134D 1μM), the “Angptl4 mRNA” value is 23.6548 and 19.8329 and 22.215; the “Vegfa mRNA” value was 3.163 and 3.148 and 2.936; the “Angpt2 mRNA” value is 1.029 and 1.541 and 1.067; the “Ptprb mRNA” value is 1.641 and 1.627 and 1.638. The “Serpine1 mRNA” value in test [3] (1% O2+32-134D 1μM) is 2.465 and 2.4817 and 2.486. In test [3] (1% O2+32-134D 10μM), the “Angptl4 mRNA” value is 13.1074 and 12.3148 and 11.0174; the “Vegfa mRNA” value was 2.892 and 2.5719 and 2.682; the “Angpt2 mRNA” value is 1.092 and 1.046 and 0.8708; the “Ptprb mRNA” value is 1.169 and 1.1917 and 1.0627. For the same compound, the “Serpine1 mRNA” value in test [3] (1% O2+32-134D 10μM) was 2.072 and 2.145 and 2.576. Moreover, in test [3] (setting [4]), the “hypoxia-increased ANGPT2 mRNA (in words)” value is on record as “inhibited” and the “hypoxia-increased PTPRB mRNA (in words)” value was “inhibited”.
